Experimental data reported in patent publication US8729082B2, “Substituted imidazoquinoxalines” (Bayer Intellectual Property GmbH, priority 2009, dated 2014).

What follows are compounds tested against T1, human kinase Mps-1 (Homo sapiens, UniProt P33981) (assay: Mps-1 kinase assay (HTRF)). Conditions: lowATP; mean; read-out: Mps1 lowATP mean IC50.
T1 construct: N-terminally GST-tagged human full length recombinant Mps-1 kinase; purchased Invitrogen, Karslruhe, Germany PV4071
T1 sequence (P33981 1-857): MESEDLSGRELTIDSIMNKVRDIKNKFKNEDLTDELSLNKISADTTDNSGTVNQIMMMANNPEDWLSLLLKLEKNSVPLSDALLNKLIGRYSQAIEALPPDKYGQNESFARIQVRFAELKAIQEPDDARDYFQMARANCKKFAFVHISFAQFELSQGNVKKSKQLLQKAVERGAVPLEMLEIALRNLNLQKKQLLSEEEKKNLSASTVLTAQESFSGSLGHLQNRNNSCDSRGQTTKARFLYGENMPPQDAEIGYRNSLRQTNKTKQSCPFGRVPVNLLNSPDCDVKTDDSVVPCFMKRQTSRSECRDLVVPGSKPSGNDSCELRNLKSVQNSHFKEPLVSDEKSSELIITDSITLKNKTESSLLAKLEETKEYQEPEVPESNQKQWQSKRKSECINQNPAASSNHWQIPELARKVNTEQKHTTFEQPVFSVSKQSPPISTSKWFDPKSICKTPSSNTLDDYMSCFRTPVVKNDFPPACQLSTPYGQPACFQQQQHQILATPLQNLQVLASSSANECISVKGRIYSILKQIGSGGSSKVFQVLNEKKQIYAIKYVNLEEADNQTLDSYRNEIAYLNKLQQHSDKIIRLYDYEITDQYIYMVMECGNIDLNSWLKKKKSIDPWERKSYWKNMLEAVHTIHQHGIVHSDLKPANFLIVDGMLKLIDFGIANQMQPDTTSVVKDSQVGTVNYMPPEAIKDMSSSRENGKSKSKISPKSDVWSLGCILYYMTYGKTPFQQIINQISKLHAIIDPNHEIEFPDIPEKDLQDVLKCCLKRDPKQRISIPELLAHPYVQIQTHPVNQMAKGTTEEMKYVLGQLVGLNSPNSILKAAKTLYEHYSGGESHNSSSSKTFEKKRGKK
Type: biochemical
Experimental: The human kinase Mps-1 phosphorylates a biotinylated substrate peptide. Detection of the phosphorylated product is achieved by homogenous time-resolved fluorescence resonance energy transfer (HTRF) from Europium-labelled anti-phospho-Serine/Threonine antibody as donor to streptavidin labelled with cross-linked allophycocyanin (SA-XLent) as acceptor. Compounds are tested for their inhibition of the kinase activity.
N-terminally GST-tagged human full length recombinant Mps-1 kinase (purchased from Invitrogen, Karslruhe, Germany, cat. no PV4071) was used. As substrate for the kinase reaction a biotinylated peptide of the amino-acid sequence PWDPDDADITEILG (C-terminus in amide form, purchased from Biosynthan GmbH, Berlin) was used.
For the assay 50 nl of a 100-fold concentrated solution of the test compound in DMSO was pipetted into a black low volume 384 well microtiter plate (Greiner Bio-One, Frickenhausen, Germany), 2 μl of a solution of Mps-1 in assay buffer [0.1 mM sodium-ortho-vanadate, 10 mM MgCl2, 2 mM DTT, 25 mM Hepes pH 7.7, 0.05% BSA, 0.001% Pluronic F-127] were added and the mixture was incubated for 15 min at 22° C. to allow pre-binding of the test compounds to Mps-1 before the start of the kinase reaction. Then the kinase reaction was started by the addition of 3 μl of a solution of 16.7 μM ATP and 1.67 μM peptide in assay buffer and the resulting mixture was incubated for a reaction time of 60 min at 22° C. The concentration of Mps-1 in the assay was adjusted to the activity of the enzyme lot and was chosen appropriate to have the assay in the linear range, typical enzyme concentrations were in the range of about 1 nM (final conc. in the 5 μl assay volume). The reaction was stopped by the addition of 3 μl of a solution of HTRF detection reagents (100 mM Hepes pH 7.4, 0.1% BSA, 40 mM EDTA, 140 nM Streptavidin-XLent [#61GSTXLB, Fa. Cis Biointernational, Marcoule, France], 1.5 nM anti-phospho(Ser/Thr)-Europium-antibody [#AD0180, PerkinElmer LAS, Rodgau-Jügesheim, Germany].
The resulting mixture was incubated 1 h at 22° C. to allow the binding of the phosphorylated peptide to the anti-phospho(Ser/Thr)-Europium-antibody. Subsequently the amount of phosphorylated substrate was evaluated by measurement of the resonance energy transfer from the Europium-labelled anti-phospho(Ser/Thr) antibody to the Streptavidin-XLent. Therefore, the fluorescence emissions at 620 nm and 665 nm after excitation at 350 nm was measured in a HTRF reader, e.g. a Rubystar (BMG Labtechnologies, Offenburg, Germany) or a Viewlux (PerkinElmer LAS, Rodgau-Jügesheim, Germany). The ratio of the emissions at 665 nm and at […] was taken as the measure for the amount of phosphorylated substrate. The data were normalised (enzyme reaction without inhibitor=0% inhibition, all other assay components but no enzyme=100% inhibition).

SMILES	IC50
CNC(=O)Nc1ccc(-c2cnc3c(NCCOC)nc4ccc(F)cc4n23)cc1 [Example 2-61, 1-(4-{8-fluoro-4-[(2-methoxyethyl)amino]imidazo[1,2-a]quinoxalin-1-yl}phenyl)-3-methylurea]	7220 nM
Cc1ccccc1-c1cnc2c(NCC(C)C)nc3ccccc3n12 [Example 1-11, 1-(2-methylphenyl)-N-(2-methylpropyl)imidazo[1,2-a]quinoxalin-4-amine]	13900 nM
O=C(NC1CC1)c1ccc(-c2cnc3c(NCC(O)CO)nc4cc(F)c(F)cc4n23)cc1 (centres unmarked) [Example 2-113, N-cyclopropyl-4-{4-[(2,3-dihydroxypropyl)amino]-7,8-difluoroimidazo[1,2-a]quinoxalin-1-yl}benzamide]	197 nM
CNC(=O)Nc1ccc(-c2cnc3c(NCCCO)nc4ccc(F)cc4n23)cc1 [Example 2-65, 1-(4-{8-fluoro-4-[(3-hydroxypropyl)amino]imidazo[1,2-a]quinoxalin-1-yl}phenyl)-3-methylurea]	5420 nM
CCCNc1nc2ccc(F)cc2n2c(-c3ccc(C(=O)NC4CC4)c(Cl)c3)cnc12 [Example 2-75, 2-chloro-N-cyclopropyl-4-[8-fluoro-4-(propylamino)imidazo[1,2-a]quinoxalin-1-yl]benzamide]	1080 nM
CC(C)CCNc1nc2ccccc2n2c(-c3ccc(C(=O)NC4CC4)cc3)cnc12 [Example 2-3, N-cyclopropyl-4-{4-[(3-methylbutyl)amino]imidazo[1,2-a]quinoxalin-1-yl}benzamide]	34 nM
CC(C)CNc1nc2ccccc2n2c(-c3ccccc3F)cnc12 [Example 1-26, 1-(2-fluorophenyl)-N-(2-methylpropyl)imidazo[1,2-a]quinoxalin-4-amine]	9140 nM
COCCCNc1nc2cc(F)c(F)cc2n2c(-c3ccc(C(=O)NC4CC4)cc3)cnc12 [Example 2-108, N-cyclopropyl-4-{7,8-difluoro-4-[(3-methoxypropyl)amino]imidazo[1,2-a]quinoxalin-1-yl}benzamide]	114 nM
COCCNc1nc2ccc(F)cc2n2c(-c3ccc(C(=O)NC4CC4)cc3)cnc12 [Example 2-45, N-cyclopropyl-4-{8-fluoro-4-[(2-methoxyethyl)amino]imidazo[1,2-a]quinoxalin-1-yl}benzamide]	255 nM
CCCCCNc1nc2ccccc2n2c(-c3ccc(C(=O)NC4CC4)cc3)cnc12 [Example 2-10, N-cyclopropyl-4-[4-(pentylamino)imidazo[1,2-a]quinoxalin-1-yl]benzamide]	92.4 nM
O=C(NC1CC1)c1ccc(-c2cnc3c(Nc4ccccc4)nc4ccccc4n23)cc1 [Example 2-9, N-cyclopropyl-4-[4-(phenylamino)imidazo[1,2-a]quinoxalin-1-yl]benzamide]	545 nM
CC(C)CNc1nc2ccccc2n2c(-c3ccc4cc[nH]c4c3)cnc12 [Example 1-13, 1-(1H-indol-6-yl)-N-(2-methylpropyl)imidazo[1,2-a]quinoxalin-4-amine]	2010 nM
CS(=O)(=O)Nc1ccc(Nc2nc3ccccc3n3c(-c4ccc(C(=O)NC5CC5)cc4)cnc23)cc1 [Example 2-32, N-cyclopropyl-4-[4-({4-[(methylsulfonyl)amino]phenyl}amino)imidazo[1,2-a]quinoxalin-1-yl]benzamide]	202 nM
O=C(NC1CC1)c1ccc(-c2cnc3c(NCCc4ccncc4)nc4ccccc4n23)cc1 [Example 2-30, N-cyclopropyl-4-(4-{[2-(pyridin-4-yl)ethyl]amino}imidazo[1,2-a]quinoxalin-1-yl)benzamide]	121 nM
CNC(=O)Nc1ccc(-c2cnc3c(NCc4ccccn4)nc4cc(F)c(F)cc4n23)cc1 [Example 2-121, 1-(4-{7,8-difluoro-4-[(pyridin-2-ylmethyl)amino]imidazo[1,2-a]quinoxalin-1-yl}phenyl)-3-methylurea]	6700 nM

The next lines start with the values.

IC50	SMILES
35.5 nM	Cc1cc2nc(NCc3cccnc3)c3ncc(-c4ccc(C(=O)NC5CC5)c(Cl)c4)n3c2cc1C [Example 2-192, 2-chloro-N-cyclopropyl-4-{7,8-dimethyl-4-[(pyridin-3-ylmethyl)amino]imidazo[1,2-a]quinoxalin-1-yl}benzamide]
130 nM	Cc1cc2nc(NCCO)c3ncc(-c4ccc(C(=O)NC5CC5)c(Cl)c4)n3c2cc1C [Example 2-179, 2-chloro-N-cyclopropyl-4-{4-[(2-hydroxyethyl)amino]-7,8-dimethylimidazo[1,2-a]quinoxalin-1-yl}benzamide]
274 nM	CNC(=O)Nc1ccc(-c2cnc3c(NCCCn4ccnc4)nc4cc(C)c(C)cc4n23)cc1 [Example 2-169, 1-[4-(4-{[3-(1H-imidazol-1-yl)propyl]amino}-7,8-dimethylimidazo[1,2-a]quinoxalin-1-yl)phenyl]-3-methylurea]
51.2 nM	Cc1cc2nc(NCc3ccncc3)c3ncc(-c4ccc(C(=O)NC5CC5)c(Cl)c4)n3c2cc1C [Example 2-193, 2-chloro-N-cyclopropyl-4-{7,8-dimethyl-4-[(pyridin-4-ylmethyl)amino]imidazo[1,2-a]quinoxalin-1-yl}benzamide]
2400 nM	COCCCNc1nc2cc(C#N)ccc2n2c(-c3ccc(C(=O)NC4CC4)c(Cl)c3)cnc12 [Example 2-249, 2-chloro-4-{7-cyano-4-[(3-methoxypropyl)amino]imidazo[1,2-a]quinoxalin-1-yl}-N-cyclopropylbenzamide]
5.61 nM	Cc1cc2nc(NCCC(C)C)c3ncc(-c4ccc(C(=O)NC5CC5)cc4)n3c2cc1C [Example 2-145, N-cyclopropyl-4-{7,8-dimethyl-4-[(3-methylbutyl)amino]imidazo[1,2-a]quinoxalin-1-yl}benzamide]
134 nM	CCNC(=O)c1ccc(-c2cnc3c(NCC(C)C)nc4ccccc4n23)cc1 [Example 3-8, N-ethyl-4-{4-[(2-methylpropyl)amino]imidazo[1,2-a]quinoxalin-1-yl}benzamide]
5.92 nM	Cc1cc2nc(NCCCO)c3ncc(-c4ccc(C(=O)NC5CC5)cc4)n3c2cc1C [Example 2-148, N-cyclopropyl-4-{4-[(3-hydroxypropyl)amino]-7,8-dimethylimidazo[1,2-a]quinoxalin-1-yl}benzamide]
2240 nM	CNC(=O)Nc1ccc(-c2cnc3c(NCCS(N)(=O)=O)nc4cc(C)c(C)cc4n23)cc1 [Example 2-177, 2-[(7,8-dimethyl-1-{4-[(methylcarbamoyl)amino]phenyl}imidazo[1,2-a]quinoxalin-4-yl)amino]ethanesulfonamide]
982 nM	CNC(=O)Nc1ccc(-c2cnc3c(NCCCN4CCOCC4)nc4cc(C)c(C)cc4n23)cc1 [Example 2-160, 1-[4-(7,8-dimethyl-4-{[3-(morpholin-4-yl)propyl]amino}imidazo[1,2-a]quinoxalin-1-yl)phenyl]-3-methylurea]
35.9 nM	CCNc1nc2cc(C#N)ccc2n2c(-c3ccc(C(=O)NC4CC4)cc3)cnc12 [Example 2-210, 4-[7-cyano-4-(ethylamino)imidazo[1,2-a]quinoxalin-1-yl]-N-cyclopropylbenzamide]
